In ChEMBL document CHEMBL1201862, “PubChem BioAssay data set” (2004):
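The compound was tested at five concentrations on cells cultured in 96-well plates, with a 48-hour exposure period. GI50 = concentration required for 50% inhibition of growth.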 Active and inactive are the calls of the source. Rule as the data show it: active = GI50 up to about 1.1 µM and inactive = higher.

Experiments:
Assay in all cases: NCI anticancer screen, dose series, 48 h
BT-549 = system: BT-549
CAKI-1 = system: CAKI-1
EKVX = system: EKVX
HCC 2998 = system: HCC 2998
HL-60 = system: HL-60
HT-29 = system: HT-29
IGROV-1 = system: IGROV-1
LOX IMVI = system: LOX IMVI
MDA-N = system: MDA-N
MOLT-4 = system: MOLT-4
Malme-3M = system: Malme-3M
NCI-H226 = system: NCI-H226
NCI-H23 = system: NCI-H23
SK-MEL-5 = system: SK-MEL-5
UACC-257 = system: UACC-257
UACC-62 = system: UACC-62
NCI-H460 = system: NCI-H460
SF-539 = system: SF-539

Structure (SMILES) | GI50 (BT-549) | GI50 (CAKI-1) | GI50 (EKVX) | GI50 (HCC 2998) | GI50 (HL-60) | GI50 (HT-29) | GI50 (IGROV-1) | GI50 (LOX IMVI) | GI50 (MDA-N) | GI50 (MOLT-4) | GI50 (Malme-3M) | GI50 (NCI-H226) | GI50 (NCI-H23) | GI50 (SK-MEL-5) | GI50 (UACC-257) | GI50 (UACC-62) | GI50 (NCI-H460) | GI50 (SF-539)
CCC1c2[nH]c3ccccc3c2C[C@H]2C(=O)NC(C)C(=O)N12 (stereo not given in full) | > 100 µM (inactive) | > 100 µM (inactive) | > 100 µM (inactive) | > 100 µM (inactive) | > 100 µM (inactive) | > 100 µM (inactive) | > 100 µM (inactive) | > 100 µM (inactive) | > 100 µM (inactive) | > 100 µM (inactive) | > 100 µM (inactive) | > 100 µM (inactive) | > 100 µM (inactive) | > 100 µM (inactive) | > 100 µM (inactive) | > 100 µM (inactive) |  | 
NC(=O)/N=C(\N)NC(=O)c1ccccc1 | > 100 µM (inactive) | > 100 µM (inactive) | > 100 µM (inactive) | > 100 µM (inactive) | > 100 µM (inactive) | > 100 µM (inactive) | > 100 µM (inactive) | > 100 µM (inactive) | > 100 µM (inactive) | > 100 µM (inactive) | > 100 µM (inactive) | > 100 µM (inactive) | > 100 µM (inactive) | > 100 µM (inactive) | > 100 µM (inactive) | > 100 µM (inactive) | > 100 µM (inactive) | 
Cc1cc2cc3c(O)nc(O)nc3nc2cc1C | > 100 µM (inactive) | > 100 µM (inactive) | > 100 µM (inactive) |  | > 100 µM (inactive) | > 100 µM (inactive) | > 100 µM (inactive) | > 100 µM (inactive) | > 100 µM (inactive) | > 100 µM (inactive) | > 100 µM (inactive) | > 100 µM (inactive) | > 100 µM (inactive) | > 100 µM (inactive) | > 100 µM (inactive) | > 100 µM (inactive) | > 100 µM (inactive) | > 100 µM (inactive)
COc1cc2c(c(N)c1OC)C(=O)/C(=C/c1cc(C)c(O)c(C)c1)C2 | 9.68 µM (inactive) | 4.25 µM (inactive) | < 0.01 µM (active) | 1.95 µM (inactive) | < 0.01 µM (active) | 2.64 µM (inactive) | 0.0367 µM (active) | < 0.01 µM (active) | < 0.01 µM (active) | < 0.01 µM (active) |  | 4.19 µM (inactive) | < 0.01 µM (active) | < 0.01 µM (active) | > 100 µM (inactive) | < 0.01 µM (active) | < 0.01 µM (active) | < 0.01 µM (active)
N#Cc1c(N)c2c(c(-c3ccccc3)c1-c1ccccc1)C(=O)N(O)C2=O | 42.2 µM (inactive) | > 100 µM (inactive) | 36.6 µM (inactive) | 17.5 µM (inactive) | 53.7 µM (inactive) |  | 19.5 µM (inactive) | 89.7 µM (inactive) | 82 µM (inactive) | 35.6 µM (inactive) | > 100 µM (inactive) | 18.8 µM (inactive) |  | 25.3 µM (inactive) | > 100 µM (inactive) | 39.9 µM (inactive) | 47.1 µM (inactive) | 66.5 µM (inactive)
NC1CC(=O)c2c(Br)csc21 (stereo not given) | 33 µM (inactive) | 55 µM (inactive) | 67.6 µM (inactive) | 19.2 µM (inactive) | 39.2 µM (inactive) | 40.6 µM (inactive) | 33 µM (inactive) |  | 12.5 µM (inactive) | 46.6 µM (inactive) | 46.8 µM (inactive) |  |  | 61.9 µM (inactive) | 40.2 µM (inactive) | 21.3 µM (inactive) | 41 µM (inactive) | 35.6 µM (inactive)
O=P1(N(CCCl)CCCl)Oc2c(Cl)cc(Cl)c(Cl)c2Cc2c(Cl)c(Cl)cc(Cl)c2O1 | > 100 µM (inactive) | 64.9 µM (inactive) | 92.3 µM (inactive) | 25.2 µM (inactive) | > 100 µM (inactive) | 41.4 µM (inactive) |  | 39.8 µM (inactive) | 67.8 µM (inactive) | 95.7 µM (inactive) |  | 26.9 µM (inactive) | 21.4 µM (inactive) | 77.3 µM (inactive) | 59.7 µM (inactive) | 48.3 µM (inactive) | 25.2 µM (inactive) | > 100 µM (inactive)
COc1ccc(NC(=S)N/N=C\c2ccc(NC(C)=O)cc2)cc1 | > 100 µM (inactive) | > 100 µM (inactive) | > 100 µM (inactive) | > 100 µM (inactive) | 41.1 µM (inactive) | > 100 µM (inactive) | > 100 µM (inactive) | > 100 µM (inactive) | > 100 µM (inactive) | > 100 µM (inactive) | > 100 µM (inactive) |  | > 100 µM (inactive) | > 100 µM (inactive) | > 100 µM (inactive) | > 100 µM (inactive) | > 100 µM (inactive) | 
Fc1cccc(C2SCC3=Nc4ccccc4CN32)c1 (stereo not given) | 92.5 µM (inactive) | > 100 µM (inactive) | 25.4 µM (inactive) | 70.1 µM (inactive) | 35.1 µM (inactive) | 21.3 µM (inactive) |  | 40.6 µM (inactive) | 79.1 µM (inactive) | 37.8 µM (inactive) |  |  | 20.8 µM (inactive) | 17.9 µM (inactive) | 97.9 µM (inactive) | 50.2 µM (inactive) | 37.9 µM (inactive) | 47.5 µM (inactive)
